Columns and labels:
[1] = test system: CHO cells transfected with pHRL CMV (Renilla luciferase); test: Live cell assay, signal to background ratio; type: cell-based, Chinese hamster; details: for Change of luminescence from cell samples after Tergitol NP-9 was added: TERGITOL NP-9 final concentration 1%
Description: In these examples, the behavior of luminophores and protected luminophores were examined in situ in a variety of cultured cells. Cells were transiently or stably transfected with a plasmid encoding Renilla luciferase. Luminescence was compared between cells contacted with a coelenterazine (VI or VII) or a protected luminophore (IX, XV, or XVI).
Chinese hamster ovary (CHO) cells were maintained in Ham's F-12 media supplemented with 10% fetal bovine serum (FBS). HeLa and 293 cells were maintained in DMEM media supplemented with 10% fetal calf serum (FCS). All cell lines were grown at 37° C. in the presence of 5% CO2. Cells were transiently transfected with either 15 μg pUC19 or pRL-Control plasmid (PROMEGA CORPORATION, E6271 ) at a concentration of 7.5×10^5 cells per 10 cm plate using Tfx-20 (PROMEGA CORP., E2391) or TransFast™ Transfection Reagent (PROMEGA CORP., E2431). The following day, transfections were pooled and split into 48 wells of a white DYNEX 96-well luminometer plate.
The cells thus prepared were then subjected to a variety of assays. Reaction buffers for these assays were prepared using either DMEM or F12 media with FBS or FCS (10% by volume). Coelenterazine VI, coelenterazine VII or one of protected luminophores IX, XV, or XVI was then added to yield a concentration of 60 μM. These buffers were then used for luminescence measurements in the following assays. Luminescence was measured using an ORION luminometer.
Media was aspirated from the cells after 24 or 48 hours following transfection. The cells were washed with 100 μl per well of 1× phosphate buffered saline. Reaction buffer containing either VI or IX was titrated into complete media by half-logs, and these solutions were added to empty wells and to wells containing transfected cells. Luminescence was measured 5 minutes after media replacement. Immediately following the initial measurement, TERGITOL NP-9 (SIGMA CHEMICALS) was added to a final concentration of 1%. Samples were mixed for approximately 15 seconds, and luminescence was integrated over 1 second per well. The luminescence measured from cell samples increased after Tergitol NP-9 was added to samples containing coelenterazine VI or VII.
Autoluminescence was taken as the luminescence measured for samples containing medium and serum alone. The luminescence divided by the autoluminescence was taken as the signal to background ratio (S/B).

[2] = test system: CHO hRL25 cells (which express luciferase); test: Localization of luminescence, cells expressing luciferase; type: cell-based, Chinese hamster; details: 100 μM substrate; for RL (RLU): after addition of purified Renilla luciferase; for Subs (RLU): before exogenous luciferase
Method: (§1) CHO hRL25 cells (which express luciferase) (4.5 mL of (7.5×10^5 cells)/(plate/5×10^9 cells/mL) were resuspended in 5.5 mL media and put into 96 well plates. The next day, the cells were aspirated, washed with 100 μL PBS, and then aspirated again. 100 μL of media (F12) containing no substrate (background) was then added to wells containing no cells. These wells were then read for 1 sec/well with an ORION Luminometer (BERTHHOLD) (Table E; Bkg).
(§2) Similarly, 100 μL portions of media containing 100 μM of either POM-h or coelenterazine-h were placed in wells containing cells or wells alone. These wells were then read for 1 sec/well with an ORION Luminometer (BERTHHOLD) immediately following (coelenterazine) and 10 minutes post-addition (POM-h) (Table E; Subs).
(§3) Thereafter, 0.5 μL of purified Renilla luciferase (3.96×10^−5 M/Reaction (Chemicon) was added to each well. All wells were then read for 1 second/well (Table E; RL).
(§4) Similarly, 100 μL portions of media (F12) containing 100 μM of either coelenterazine or triacetyl coelenterazine were placed in wells containing cells or wells alone. These wells were then read for 1 sec/well with an ORION Luminometer (BERTHHOLD) immediately following (coelenterazine) and 4 minutes post-addition (triacetyl coelenterazine) (Table F; Subs).
(§5) Thereafter, 0.5 μL of purified Renilla luciferase (3.96×10^−5 M/Reaction (Chemicon) was added to each well. All wells were then read for 1 second/well (Table F; RL).

[3] = test system: Untransfected CHO (which do not naturally produce luciferase); test: Localization of luminescence, untransfected cells; type: cell-based, Chinese hamster; details: Table F, 100 μM substrate; for RL (RLU): after addition of purified Renilla luciferase; for Subs (RLU): before exogenous luciferase
Method: as §4, §5

Renilla luciferase = biological target: T1, Renilla luciferase (Renilla reniformis, UniProt P27652); test: Localization of luminescence, media only wells with and without purified Renilla luciferase; type: biochemical; details: Table E, no cells, 100 μM substrate
T1 construct: purchased Chemicon Corp
T1 sequence (P27652 1-311): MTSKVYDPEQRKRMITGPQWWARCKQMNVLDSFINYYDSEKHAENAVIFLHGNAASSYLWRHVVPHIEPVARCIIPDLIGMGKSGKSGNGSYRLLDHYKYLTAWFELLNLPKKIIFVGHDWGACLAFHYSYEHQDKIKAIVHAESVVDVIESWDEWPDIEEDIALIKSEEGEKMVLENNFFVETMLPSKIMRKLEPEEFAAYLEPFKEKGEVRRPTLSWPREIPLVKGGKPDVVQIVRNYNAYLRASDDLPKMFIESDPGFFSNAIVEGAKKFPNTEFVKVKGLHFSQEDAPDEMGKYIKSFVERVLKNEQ
Method: as §1, §2, §3

[4] = Table F, hRL2 cells, read immediately (coelenterazine) or 4 minutes post-addition (triacetyl coelenterazine)

| Molecule | Change of luminescence from cell samples after Tergitol NP-9 was added [1] | RL (RLU) ([2]; Table F, hRL2 cells) | Subs (RLU) [2, 4] [RLU] | RL (RLU) [3] [RLU] | Subs (RLU) [3] [RLU] | RL (RLU) ([2]; Table E, hRL25 cells) | Subs (RLU) ([2]; Table E, hRL25 cells, read immediately (coelenterazine-h) or 10 minutes post-addition (POM-h)) | RL (RLU) (Renilla luciferase; after addition of purified Renilla luciferase) | Subs (RLU) (Renilla luciferase; before luciferase) | Ratios - compound/reference Luminesc. ([1]; reference compound VI, CHO cells transfected with pHRL CMV, 5 minutes after media replacement) | Ratios - compound/reference S/N ([1]; reference compound VI, luminescence divided by autoluminescence) | Ratios - compound/reference Autolum. ([1]; reference compound VI, medium and serum alone) |
| --- | --- | --- | --- | --- | --- | --- | --- | --- | --- | --- | --- | --- |
| coelenterazine [compound VI, reference compound] | increased | 110008374 | 139842 | 11930147 | 6253 |  |  |  |  |  |  |  |
| O=c1c(Cc2ccccc2)nc2c(Cc3ccccc3)[nH]c(-c3ccc(O)cc3)cn1-2 [compound VII, coelenterazine-h, reference compound] | increased |  |  |  |  | 331381 | 39342 | 278467 | 763 |  |  |  |
| CC(=O)Oc1ccc(Cc2nc3c(Cc4ccccc4)nc(-c4ccc(OC(C)=O)cc4)cn3c2OC(C)=O)cc1 [compound IX, triacetyl-coelenterazine] | dropped almost to the level of autoluminescence | 229111 | 224353 | 8910 | 864 |  |  |  |  | 1.5 | 9.1 | 0.2 |
